Experiments:
Assay type in all cases: biochemical
alpha-amylase = assay: Alpha-amylase activity assay (starch/DNS, 540 nm); details: mean ± SEM; read-out: IC50 = α-amylase µM ± SEM
Description: % inhibition = (Abs control − Abs sample) × 100
S.3 Alpha-Amylase Activity Assay:
The inhibitory potential of α-Amylase enzyme was evaluated through the standard methodology. A test tube containing (250 µL) of the compound being tested at various concentrations (50–250 µg/mL), (250 µL) of [1% (w/v)] starch solution, and (250 µL) of (1U/mL) alpha-amylase solution was prepared. Post-incubation at 20ᵒC for 3 min, the en-zymatic process was halted by adding (500 µL) of dinitro salicylic acid (color Reagent).
Following this, (250 µL) of α-amylase was immediately introduced after heating the mix-ture in hot water. The mixture was subsequently subjected to heating at 85 ᵒC for duration of 15 min, followed by a 5-min incubation period at room temperature. (4500 µL) of dis-tilled water was added, resulting in a final volume of (6000 µL). Spectrophotometric anal-ysis at 540 nm was conducted to determine absorbance. A control sample devoid of the […]
equation is used for calculation. […]
(§1) Radius of 12 Å around the Montbretin A binding site was defined for enzyme active site. Accomplishment of docking calculations was achieved using Chem PLP scoring function.
(§2) The geometric parameters and energies were computed by density functional theory at the B3LYP/CEP-631G level of theory, using the […] 98W package of the pro- […]
(§3) grams, on geometries that were optimized at CEP-631G basis set.

alpha-glucosidase = assay: Alpha-glucosidase inhibition assay (absorbance 405 nm); details: mean ± SEM; read-out: IC50 = α-glucosidase µM ± SEM
Description: 100 µL. The reaction was […] by adding 100 µL of sodium carbonate (200 mM). The absorbance at 405 nm was measured using a microplate reader. This experimental proce-dure was conducted in triplicate, and a control group without the tested compound was included for comparison. […] The percentage […]
inhibition was calculated using the following equation, where “Abs” represents absorb- […]
% inhibition = (Abs control − Abs sample) × 100 […]
as §1, §2, §3

diabetes enzymes = assay: Enzyme kinetic studies (mode of inhibition); details: Figure 8
Description: Enzyme kinetics studies provide the most vital information for how drugs work against the disease, such as binding of the inhibitor with its target, and the concentration required to achieve the desired effects. This study explains that the amount of the drug will be affected, slowing down the biological process. The different patterns for slowing down a process are obtained in the form of curves or slopes. This also provides how various forms of inhibitors or derivatives cause the reaction kinetics to slow in unique ways by adding more inhibitors. […] The substitution of unique functional groups in various sites of the phenyl ring might be responsible for its remarkable efficiency. The graphical curves in Figure 8 show the direct competition of the analog against the substrate for the same spot on the enzyme. […]
100 µL. […] The absorbance at 405 nm was measured using a microplate reader. […] The percentage inhibition was calculated using the following equation, where “Abs” represents absorb- […]
The inhibitory potential of α-Amylase enzyme was evaluated through the standard methodology. […]
Following this, (250 µL) of α-amylase was immediately introduced after heating the mix-ture in hot water. […] Spectrophotometric anal-ysis at 540 nm was conducted to determine absorbance. […]

Compound	IC50 (alpha-amylase)	IC50 (alpha-glucosidase)	Mode of inhibition (diabetes enzymes)
O=C1C=C(Nc2nnc(NC(=O)c3c(O)cc(O)cc3O)o2)N=N1 [Compound 3]	3.2 ± 0.2 µM	3.6 ± 0.1 µM	competitive inhibitor
Cc1ccc(Cl)c(C(=O)Nc2nnc(NC3=CC(=O)N=N3)o2)c1 [Compound 8]	11.7 ± 0.2 µM	12.1 ± 0.1 µM	–
O=C1C=C(Nc2nnc(NC(=O)c3ccc(Br)cc3)o2)N=N1 [Compound 9]	15.3 ± 0.1 µM	16.1 ± 0.2 µM	–

From publication PMC12655744, “From Bench to Bioactivity: An Integrated Medicinal Development Based on Kinetic and Simulation Assessment of Pyrazolone-Oxadiazole Coupled Benzamide as Promising Inhibitors of Diabetes Mellitus” (Pharmaceuticals, 2025)
